Our source for the Kd values is paper PMC10570460 (Frontiers in Cell and Developmental Biology, 2023).

This experiment addresses T1, PKA regulatory subunit R1Alpha (R1A) (Rattus norvegicus, UniProt P09456).
T1 construct: gene Prkar1a; endogenous detergent-insoluble R1A clusters in P30 rat CA1 brain sections
As to the kind of experiment: saturation equilibrium binding in fixed brain sections, confocal fluorescence microscopy.

T1 sequence (P09456 2-381): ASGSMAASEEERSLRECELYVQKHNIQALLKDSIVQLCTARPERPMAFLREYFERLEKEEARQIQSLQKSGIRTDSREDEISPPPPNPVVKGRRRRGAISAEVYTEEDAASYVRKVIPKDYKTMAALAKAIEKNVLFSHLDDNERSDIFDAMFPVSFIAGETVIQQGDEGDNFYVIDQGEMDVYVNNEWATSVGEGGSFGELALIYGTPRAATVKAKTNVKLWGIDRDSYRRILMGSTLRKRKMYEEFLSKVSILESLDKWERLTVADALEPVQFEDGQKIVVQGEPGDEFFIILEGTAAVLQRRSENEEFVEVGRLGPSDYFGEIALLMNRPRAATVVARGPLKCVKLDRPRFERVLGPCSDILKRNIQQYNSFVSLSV

`Nc1ncnc2c1nc(SCC(=O)Nc1ccc3c(c1)C(=O)OC31c3ccc(O)cc3Oc3cc(O)ccc31)n2[C@@H]1O[C@@H]2COP(=O)(O)O[C@H]2[C@H]1O` [SAF-cAMP, 8-(5-thioacetamidofluorescein)-adenosine 3′,5′-cyclic monophosphate] had a Kd of 23.5 nM.

A word on the Kd: it is a measure of binding affinity in units of concentration. A higher Kd goes with weaker binding.
